Experimental data from patent publication US8940909B2, “Indicator platform” (Biosynth AG, priority 2009, dated 2015).
“Also recorded” adds a separate entry of the source.

What was measured:
[1] = Water solubility and fluorescence of IO dyes from ester indicators; assay type: physicochemical; settings: above pH 5
Text: Upon further acidification said dyes formed orange colored non-fluorescent precipitates from aqueous solutions. […] Evidently, said dyes are highly acidic in nature and highly fluorescent in deprotonated form.

[2] = test system: beta-galactosidase positive Eschericha coli (NM1); assay: IO staining of bacterial colonies on Nutrient Agar (color, fluorescence, localization, growth); as to C: Color of colonies (strength): key: −: absent; +/−: weak; +: strong; ++: very strong; as to F: Fluorescence of colonies (strength): key: −: absent; +/−: weak; +: strong; ++: very strong; as to G: Growth of colonies: key: −: absent; +/−: weak; +: strong; ++: very strong; as to L: Localization of stain on colonies: key: −: absent; +/−: weak; +: strong; ++: very strong; assay type: cell-based, E. coli; settings: 150 mg/l substrate and 100 mg/l IPTG; for F: Fluorescence of colonies (colour) / G: Growth of colonies / L: Localization of stain on colonies / F: Fluorescence of colonies (strength): 24 h; for F: Fluorescence of colonies (colour) / F: Fluorescence of colonies (strength): 366 nm UV; for C: Color of colonies (colour of stain) / C: Color of colonies (strength): 24 h on Nutrient Agar; for G: Growth of colonies / L: Localization of stain on colonies / F: Fluorescence of colonies (strength) / C: Color of colonies (strength): E. coli
Protocol: (§1) Nutrient Agar (5 g/l peptone, 5 g/l NaCl, 2 g/l yeast extract, 1 g/l beef extract, 13 g/l agar, pH 7.4) was autoclaved and allowed to cool to 50° C. Then indicators were added to final concentrations of 150 mg/l (from a 20 mg/ml stock solution in DMF).
(§2) Optionally IPTG was added to 100 mg/l (from a 100 mg/ml stock solution in H2O) and plates were poured. Agar plates were inoculated with cultures of beta-galactosidase positive Eschericha coli (NM1) or beta-galactosidase negative Salmonella enteritidis (RKI 05/07992) (pre-grown on nutrient broth for 8-18 hours) and incubated at 37° C. Plates were inspected at 16, 20, 24 and 48 hours and pictures were recorded at 18, 24, and 48 hours with a Digistore 2 Image documentation system (CAMAG) under white light.
(§3) A considerable number of indicators molecules (Table IVa, IVb) and a selection of labile groups (Table IVc) were tested with various microbial species producing different biomarker enzymes (external stimuli, eS). The color of stains ranges from yellow to red.
(§4) Plating media from Example 10 were examined under 366 nm UV irradiation at 16, 20, 24 and 48 hours for fluorescence by means of Digistore 2 Image documentation system (CAMAG). Loops of bacterial cells, grown for 48 hours on Nutrient Agar plates containing 150 mg/l beta-D-galactosidase indicator and 100 mg/l IPTG, were directly streaked into wells of black clear bottom microtiter plates. Fluorescence scans were recorded on a Spectramax M5 (Molecular Devices).

[3] = test system: beta-galactosidase negative Salmonella enteritidis (RKI 05/07992); assay type: cell-based; settings: S. enteritidis (b-gal negative), 24 h, 150 mg/l substrate and 100 mg/l IPTG; for F: Fluorescence of colonies (strength): 366 nm UV; as to all read-outs here: key: −: absent; +/−: weak; +: strong; ++: very strong
Protocol: as §1, §2, §3, §4

Eschericha coli (NM1) = assay: MDAB staining of bacterial colonies with indicators I9a, I10a, I11a, I12a on Nutrient Agar, aerobic; assay type: cell-based; settings: for colonial morphology, aerobic conditions: Escherichia coli (b-gal +), aR MDAB, equivalents 1:1, after 48 h of incubation; for Effectiveness of indicator system with MDAB under aerobic conditions: in combination with MDAB
Protocol: (§5) Indicators were tested with live cultures on Nutrient Agar plates. Nutrient Agar (5 g/l peptone, 5 g/l NaCl, 2 g/l yeast extract, 1 g/l beef extract, 13 g/l agar, pH 7.4) was autoclaved and allowed to cool to 50° C. Then substrates were added to final concentrations of 150 mg/l (from a 20 mg/ml stock solution in DMF). Optionally MDAB was added to a concentration of 1 mM (from a 200 mM stock solution in DMF) and plates were poured. Agar plates were inoculated with cultures of Eschericha coli (NM1) or Salmonella enteritidis (RKI 05/07992) (pre-grown on nutrient broth for 8-18 hours) and aerobically incubated at 37° C.

[4] = test system: Salmonella enteritidis (RKI 05/07992); assay: as above; assay type: cell-based; settings: Salmonella enteritidis (b-gal −); aR MDAB, equivalents 1:1; after 48 h of incubation
Protocol: as §5

pig liver esterase = assay: Indication of carbamate hydrolysis by esterase; assay type: biochemical; settings: prolonged exposure to pig liver esterase
[5] = Indication of carbamate hydrolysis by alkali; settings: short treatment with 1N aqueous NaOH solution
[6] = Indication of disulfide reduction by TCEP
Candida albicans = assay: IO staining of fungal colonies; assay type: cell-based; as to growth: key: −: absent; +/−: weak/variable; +: strong
Protocol: (§6) Agar base (6 g/l soytone, 1.5 g/l yeast extract, 1 g/l glucose, 10 mM sodium phosphate buffer, 13 g/l agar, pH 7.0) was autoclaved and allowed to cool to 50° C. Then 1 mM MnSO4, 1 g/l N-Acetyl-D-galactosamine and: 1-(2-benzoylphenyl)-6-chloro-1H-indol-3-yl-N-acetyl-beta-D-galactosaminide (I21g) were added to final concentrations of 0.64 mM (from a 50 mM stock solution in DMF) and plates poured. Plates were inoculated with Candida albicans, Candida krusei and Saccharomyces cerevisiae and incubated at 37° C. for 48 hours.

Candida krusei = assay: IO staining of fungal colonies; assay type: cell-based; settings: Candida krusei strain 305, galactosamidase −; agar plates containing indicator; as to growth: key: −: absent; +/−: weak/variable; +: strong
Protocol: as §6

Saccharomyces cerevisiae = assay: IO staining of fungal colonies; assay type: cell-based; settings: Saccharomyces cerevisiae strain 306, galactosamidase −; agar plates containing indicator; as to growth: key: −: absent; +/−: weak/variable; +: strong
Protocol: as §6

[7] = Candida albicans strain 304, galactosamidase +, agar plates containing indicator

| SMILES | F: Fluorescence of colonies (colour) [2] | C: Color of colonies (colour of stain) [2] | G: Growth of colonies [2] | L: Localization of stain on colonies [2] | F: Fluorescence of colonies (strength) [2] | C: Color of colonies (strength) [2] | C: Color of colonies (strength) [3] | F: Fluorescence of colonies (strength) [3] | Effectiveness of indicator system with MDAB under aerobic conditions (Eschericha coli (NM1)) | colonial morphology, aerobic conditions [4] | other results |
| --- | --- | --- | --- | --- | --- | --- | --- | --- | --- | --- | --- |
| O=C1c2ccccc2-n2c1c(O)c1ccccc12 [IO10, 11-Hydroxy-10H-indolo[1,2-a]indol-10-one] |  |  |  |  |  |  |  |  |  |  | Solubility in water [1]: freely soluble; also recorded: readily water-soluble |
| COC(=O)c1ccccc1-n1cc(O[C@@H]2O[C@H](CO)[C@H](O)[C@H](O)[C@H]2O)c2c(Cl)c(Br)ccc21 [Indicator I12a, 5-Bromo-4-chloro-1-[2-(methoxycarbonyl)phenyl]-1H-indol-3-yl-beta-D-galactopyranoside] | green | yellow-green | + | − | +/− | +/− | − | − | effective | Cream colored colonies | colonial morphology, aerobic conditions (Eschericha coli (NM1)): Brown colored colonies |
| CCNC(=O)Oc1cn(-c2ccccc2C(=O)c2ccccc2)c2ccccc12 [Indicator I32, 1-(2-Benzoylphenyl)-1H-indol-3-yl ethyl carbamate] |  |  |  |  |  |  |  |  |  |  | Signal on carbamate hydrolysis by esterase (pig liver esterase): yellow precipitate; Signal on alkaline carbamate hydrolysis [5]: yellow precipitate |
| COC(=O)c1ccccc1-n1cc(O[C@@H]2O[C@H](CO)[C@H](O)[C@H](O)[C@H]2O)c2ccc(Cl)cc21 [Indicator I11a, 6-Chloro-1-[2-(methoxycarbonyl)phenyl]-1H-indol-3-yl-beta-D-galactopyranoside] | green | yellow-green | + | − | + | + | − | − | effective | Cream colored colonies |  |
| CC(=O)c1ccccc1-n1cc(SSc2cn(-c3ccccc3C(C)=O)c3ccccc23)c2ccccc21 [Indicator I33, Bis[1-(2-acetylphenyl)-1H-indol-3-yl]-disulfane] |  |  |  |  |  |  |  |  |  |  | Signal on disulfide reduction, alkaline conditions ([6]; alkaline conditions (1 N aqueous sodium hydroxide)): the solution turned yellow; Signal on disulfide reduction, neutral conditions ([6]; neutral conditions): no detectable signal |
| COC(=O)c1ccccc1-n1cc(O[C@@H]2O[C@H](CO)[C@H](O)[C@H](O)[C@H]2O)c2ccccc21 [Indicator I10a, 1-[2-(Methoxycarbonyl)phenyl]-1H-indol-3-yl-beta-D-galactopyranoside] | green | yellow-green | + | − | + | + | − | − | effective | Cream colored colonies |  |
| CC(=O)N[C@H]1[C@H](Oc2cn(-c3ccccc3C(=O)c3ccccc3)c3cc(Cl)ccc23)O[C@H](CO)[C@H](O)[C@@H]1O [Indicator I21g, 1-(2-Benzoylphenyl)-6-chloro-1H-indol-3-yl-N-acetyl-beta-D-galactosaminide] |  |  |  |  |  |  |  |  |  |  | Color (Candida albicans; [7]): Yellow; Growth (Candida albicans; [7]): +/−; Color of fungal colonies producing matching external stimulus (Candida albicans; D-galactosamidase biomarker of Candida albicans): bright yellow; Color (Candida krusei): Cream; Growth (Candida krusei): +/−; Color (Saccharomyces cerevisiae): Cream; Growth (Saccharomyces cerevisiae): +/− |
| OC[C@H]1O[C@@H](Oc2cn(-c3ccccc3)c3cc(Cl)ccc23)[C@H](O)[C@@H](O)[C@H]1O [Indicator I9a, 6-Chloro-1-phenyl-1H-indol-3-yl-beta-D-galactopyranoside] |  |  |  |  |  |  |  |  | effective | Cream colored colonies | colonial morphology, aerobic conditions (Eschericha coli (NM1)): Red colored colonies |
